Like-named read-outs stand apart in the source and are kept apart here. One block for each molecule: values may come before it.
How the values were obtained:
[1] = test system: human ovarian cancer (SKOV-3); assay: MTT cytotoxicity assay, SKOV-3; assay type: cell-based
[2] = test system: murine colon cancer (CT-26); assay: MTT cytotoxicity assay, CT-26; assay type: cell-based; conditions: read-out: IC50 CT-26 (48 h)
human lung cancer (A549) = assay: MTT cytotoxicity assay, A549; assay type: cell-based; conditions: read-out: IC50 A549 (48 h)
[3] = test system: cisplatin-resistant cell line A549R; assay: MTT cytotoxicity assay, A549R; assay type: cell-based, human; conditions: for RF (resistant factor): RF=IC50(A549R)/IC50(A549); for IC50: read-out: IC50 A549R (48 h)
[4] = test system: human normal liver cell line LO-2; assay: MTT cytotoxicity assay, normal cell LO-2; assay type: cell-based; conditions: for IC50: read-out: IC50 LO-2 (48 h)
CT-26 homograft tumors = assay: In vivo antitumor assay, CT-26 homograft; parameters: species or system BALB/c mice; conditions: days 6, 9, 12, 14, day 15, saline 1586
rhCOX-2 = target: T1, rhCOX-2 (Homo sapiens, UniProt P35354); assay: biochemical; conditions: read-out: COX-2 inhibition
T1 sequence (P35354 18-604): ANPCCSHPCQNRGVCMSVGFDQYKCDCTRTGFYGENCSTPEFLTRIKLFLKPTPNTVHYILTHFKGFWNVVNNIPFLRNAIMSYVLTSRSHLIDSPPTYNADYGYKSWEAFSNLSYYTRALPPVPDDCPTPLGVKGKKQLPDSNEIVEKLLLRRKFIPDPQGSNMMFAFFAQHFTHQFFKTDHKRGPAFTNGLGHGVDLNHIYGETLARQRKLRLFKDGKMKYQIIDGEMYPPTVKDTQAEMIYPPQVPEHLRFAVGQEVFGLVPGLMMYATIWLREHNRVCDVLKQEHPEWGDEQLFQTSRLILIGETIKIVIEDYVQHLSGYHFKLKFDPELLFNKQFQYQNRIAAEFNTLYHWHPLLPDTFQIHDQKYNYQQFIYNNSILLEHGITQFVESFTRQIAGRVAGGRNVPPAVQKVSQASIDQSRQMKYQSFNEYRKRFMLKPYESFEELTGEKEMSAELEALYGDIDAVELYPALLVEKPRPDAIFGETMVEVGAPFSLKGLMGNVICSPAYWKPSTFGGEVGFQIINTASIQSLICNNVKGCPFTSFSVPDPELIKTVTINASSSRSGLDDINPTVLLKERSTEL

Toxicity in vivo = assay: Toxicity in vivo; parameters: species or system BALB/c mice; conditions: 4 mg Pt/kg (1-NPs, oxaliplatin i.v.; 1 i.p.)
[5] = Serum AST, ALT, BUN and CRE detection; assay type: in vivo, BALB/c mice; conditions: 4 mg Pt/kg (1-NPs, oxaliplatin i.v.; 1 i.p.), vs saline
iNOS = assay: Immunohistochemical detection of iNOS in tumor tissues; assay type: in vivo, BALB/c mice; conditions: 4 mg Pt/kg (1-NPs, oxaliplatin i.v.), immunohistochemistry
MMP-9 = assay: Immunohistochemical detection of MMP-9 in tumor tissues; assay type: in vivo, BALB/c mice; conditions: 4 mg Pt/kg (1-NPs, oxaliplatin i.v.; 1 i.p.), immunohistochemistry; saline 16.3±1.9
[6] = read-out: IC50 SKOV-3 (48 h), 48 h incubation
[7] = read-out: IC50 SKOV-3 (72 h), 72 h incubation
[8] = MTT, 48 h incubation, normal liver cell

SMILES: N.N.[Cl][Pt][Cl] [cisplatin]
IC50 [1, 6]: 1.9 ± 0.4 µM | IC50 [1, 7]: 1.2 ± 0.3 µM | IC50 ([2]; MTT, 48 h incubation): 1.2 ± 0.3 µM | IC50 (human lung cancer (A549); MTT, 48 h incubation): 2.8 ± 0.6 µM | RF (resistant factor) [3]: 2.57 | RF (resistant factor) ([3]; listed as CDDP): 2.6 | IC50 ([3]; MTT, 48 h incubation): 7.1 ± 1.3 µM | IC50 [4, 8]: 3.4 ± 1.2 µM | tumor volume (CT-26 homograft tumors; 2 mg Pt/kg (2-NPs, cisplatin i.v.; 2 i.p.)): 399 mm^3

inhibition at 40 µM (rhCOX-2): 74%
SMILES: COc1ccc2cc([C@H](C)C(=O)O)ccc2c1 [naproxen]
IC50 ([2]; Mus musculus, CT26, 48 h): > 100 µM | IC50 (human lung cancer (A549); Homo sapiens, A549, 48 h): > 100 µM | IC50 ([3]; Homo sapiens, 48 h): > 100 µM | IC50 ([4]; Homo sapiens, 48 h): > 100 µM

SMILES: O=C1[O][Pt]2([NH][C@@H]3CCCC[C@H]3[NH]2)[O]C1=O [oxaliplatin]
IC50 [1, 6]: 5.9 ± 1.3 µM | IC50 [1, 7]: 7.5 ± 1.8 µM | IC50 ([2]; MTT, 48 h incubation): 4.1 ± 0.7 µM | IC50 (human lung cancer (A549); MTT, 48 h incubation): 6.7 ± 1.8 µM | RF (resistant factor) [3]: 0.4 | IC50 ([3]; MTT, 48 h incubation): 2.4 ± 0.6 µM | SI (selectivity index) ([4]; SI = IC50(LO-2)/Average IC50): 1.0 | IC50 [4, 8]: 4.8 ± 0.7 µM | tumor volume (CT-26 homograft tumors; 4 mg Pt/kg (1-NPs, oxaliplatin i.v.; 1 i.p.)): 477 mm^3 | signs of toxicity during treatment (Toxicity in vivo): anorexia and dyskinesia | H&E histology of heart, liver, spleen, lung and kidney (Toxicity in vivo; vs saline): no appreciable histological differences | spleen weight index (Toxicity in vivo; vs saline): remarkable suppressions of spleen | ALT and AST levels in serum [5]: significant enhanced ALT and AST levels | expression of iNOS in tumor tissues (iNOS): significantly upregulates iNOS | expression of MMP-9, mean optical density (MMP-9): 6.5±0.5%
